In PMC11215077, “Antiviral activity of temporin-1CEb analogues against gingival infection with herpes simplex virus type 1” (Frontiers in Oral Health, 2024):
Values after ≈ are worked out from the molar mass of the structure shown. Square brackets hold non-standard residues; d marks the D form. Peptide text beside a SMILES is read from it. AEEA = NCCOCCOCC(=O)O

Assays:
HSV-1 [1] = assay: Virus inhibition (replication) assay in Vero E6 and TIGKs cells, qPCR, titration, gB Western blot; type: cell-based, herpes simplex virus type 1; conditions: 48 h p.i.
Method: HSV-1 stocks were generated by infecting Vero E6 cells. Cells were lysed at 48 h p.i. by two freeze-thaw cycles. The virus containing fluid was aliquoted and stored at −80°C. A control Vero E6 cell lysate from mock-infected cells was prepared in the same manner as the virus stock. Virus yield was assessed by virus titration on fully confluent Vero E6 cells in 96-well plates, according to the method of Reed & Muench ([32]). Plates were incubated at 37°C for 48 h and the occurrence of a cytopathic effect was scored using an inverted microscope, and TCID50 (50% tissue culture infection dose) was calculated.
Vero E6 or TIGKs cells were seeded in 12-well plates and cultured for 48 h. […] After 30 min of incubation at 37°C, cells were infected with HSV-1 at TCID50 400 /ml or treated with mock. After 2 h of infection at 37°C, unbound viral particles were removed by washing with PBS, and culture media supplemented with peptide conjugates were applied. Following 48 h of incubation, media were collected, and the quantity of HSV-1 DNA copies was assessed using titration and qPCR.
(§1) Viral DNA was isolated from the conditioned media or the apical washes of inserts (OTG model) using Viral DNA/RNA Isolation Kit (A&A Biotechnology). The virus yield assessed by quantitative real-time PCR (qPCR). The reaction was carried out in a CFX96 Touch Real-Time PCR Detection System (Bio-Rad), in a 10 μl reaction mixture consisting of TaqMan^TM Fast Advanced Master Mix, TaqMan^TM Microbe Detection assay against HSV-1 (Vi04230116_s1) and 1 μl of viral DNA. The temperature profile was 10 s at 95°C, followed by 40 cycles of 3 s at 95°C and 20 s at 60°C. DNA quantification standards were prepared. In summary, a fragment of viral DNA was amplified using the primers listed above and cloned into the pTZ57R/T plasmid using the InsTAclone PCR cloning kit. The plasmid was propagated in E. coli, purified with the GeneJet Plasmid Miniprep Kit, and digested with the EcoR1 restriction enzyme. The number of copies per mL was estimated after the concentration of linearized DNA was assessed spectrophotometrically.
Protein extracts were prepared using lysis buffer (0.25% Na-deoxycholate, 0.5% Nonidet P-40, 0.05% SDS, protease inhibitor mixture, 2.5 mM EDTA in PBS), and the protein concentration was assessed using Pierce BCA (Thermo Fisher) protein assay kit. Equal amounts of cell extracts were separated on 10% SDS-PAGE gel and electrotransferred onto polyvinylidene difluoride membranes for gB and β-actin in transfer buffer (25 mM Tris, 0.2 M glycine, and 20% ethanol) for 90 min at 100 V. Nonspecific binding sites were blocked for 90 min in 5% skimmed milk prepared in TBST buffer (20 mM Tris, pH 7.5, 0.5 M NaCl, 0.05% Tween 20). Membranes were further incubated overnight at 4°C with primary antibodies: mouse anti-HSV-1 + HSV-2 gB (1:5000; abcam) and mouse anti-β-actin (1:4,000; BD Biosciences). The following day, membranes were washed three times with TBST buffer and incubated with HRP-conjugated secondary antibodies for 60 min at 37°C: goat anti-mouse IgG (1:20,000; β-actin; BD Bioscience) or sheep anti-mouse IgG (1:50,000; gB; Sigma Aldrich). Next, blots were washed five times for 5 min in TBST buffer, developed using Luminata Cresecendo Substarte (Merck) and exposed to AGFA medical x-ray film. Densitometry analysis was performed using ImageJ 1.52q software.

HSV-1 [2] = assay: Virion integrity assay; type: cell-based, herpes simplex virus type 1; conditions: virions pre-treated 1 h at RT with 15 μg/ml, then TIGKs infected; qPCR up to 48 h p.i.; compared to Triton X-100
Method: HSV-1 samples were incubated with DAL-PEG-LK6 and CPP1-PEG-LK6 (15 μg/ml) for 1 h at room temperature on a shaker. Additionally, Triton X-100 was used as a positive control. Next, the mixtures were diluted to decrease tested molecules concentrations (0.65 ng/ml) and were used to infect TIGKs monolayers. After 48 h of incubation, supernatants were collected, and the quantity of HSV-1 DNA copies was determined using qPCR.
as §1, with “The plasmid was propagated in E. coli, purified with the GeneJet Plasmid Miniprep Kit, and digested with the EcoR1 restriction enzyme.” left out

HSV-1 [3] = conditions: concentration reducing viral replication by 50%; TIGKs cells pre-treated, infected and cultivated with compound; qPCR; mean of two independent experiments
Method: Data were expressed as means ± SD. Statistical significance was determined using unpaired t-test, one-way ANOVA, and/or two-way ANOVA for direct comparisons between single groups. A p-value <0.05 was considered statistically significant. We used GrapPad Prism 10 software for the analyses. […]

[4] = system: HSV-1 clinical strains (294.1, 615.9, C08R, C10B); assay: Viral replication assay with HSV-1 clinical strains; type: cell-based, herpes simplex virus type 1; conditions: 15 μg/ml, qPCR 48 h p.i.
Method: HSV-1 strain F was acquired from American Type Culture Collection (VR 733). Clinical isolates of HSV-1 (294.1, 615.9, C08R, C10B) were kindly provided by Donald M. Coen from Department of Biological Chemistry and Molecular Pharmacology, Harvard Medical School, Boston. HSV-1 strains were propagated and titrated on Vero cells.
Vero E6 or TIGKs cells were seeded in 12-well plates and cultured for 48 h. Next, the medium was removed and replaced with a fresh medium supplemented with DAL-PEG-LK6 and CPP1-PEG-LK6 (15 μg/ml). After 30 min of incubation at 37°C, cells were infected with HSV-1 at TCID50 400 /ml or treated with mock. After 2 h of infection at 37°C, unbound viral particles were removed by washing with PBS, and culture media supplemented with peptide conjugates were applied. Following 48 h of incubation, media were collected, and the quantity of HSV-1 DNA copies was assessed using titration and qPCR.
Viral DNA was isolated from the conditioned media or the apical washes of inserts (OTG model) using Viral DNA/RNA Isolation Kit (A&A Biotechnology). The virus yield assessed by quantitative real-time PCR (qPCR). […] DNA quantification standards were prepared. […] The number of copies per mL was estimated after the concentration of linearized DNA was assessed spectrophotometrically.

[5] = Analytical RP-HPLC retention time; conditions: Phenomenex Jupiter 4 μ Proteo 90 Å, 250 × 4.60 mm, listed as basic physicochemical characteristic
Method: The synthesized compounds were then purified by reverse-phase high-performance liquid chromatography (RP-HPLC) on a Waters system (Phenomenex Jupiter 4 μ Proteo 90 Å column, 250 × 10 mm). A linear gradient from 10% to 80% of solvent B over 60 min (Solvent A: 0.1% TFA in water; Solvent B: 80% acetonitrile in Solvent A) was employed with a flow rate 5 ml/min. The homogeneity of the final peptide fractions was analyzed using a Shimadzu HPLC System (Shimadzu Europe GmbH, Duisburg, Germany) equipped with a Phenomenex Jupiter 4 μ Proteo 90 Å column, 250 × 4.60 mm. The mass spectra of the synthesized peptides were recorded using a Biflex III MALDI-TOF mass spectrometry (Bruker, Mannheim, Germany) with α-cyano-4-hydroxy-cinnamic acid (CCA) or 2,5-dihydroxybenzoic acid (DHB) used as the matrix.

Method for in vitro: The viability of Vero E6 and TIGKs cells was examined by the XTT Cell Viability Assay kit (Biological Industries, USA). Briefly, cells were treated with indicated concentrations of the peptide conjugates for 48 h at 37°C. Next, the fresh medium was added to the cells and 50 μl of the activated XTT reagent [2,3-bis(2-methoxy-4-nitro-5-sulphenyl)-2H-tetrazolium-5-carboxanilide] was added and further incubated for 2 h at 37°C. Absorbance was measured at a wavelength of 480 nm using FlexStation 3 microplate reader (Molecular Device, Wokingham, UK). The results were expressed normalized against a control of untreated cells (100% viability). To assess the effect of peptide conjugate on the integrity of the plasma membrane, the LDH release assay was performed using the CytoTox96 nonradioactive cytotoxicity assay kit (Promega, Madison, WI, USA) according to the manufacturer's instructions. Cytotoxicity was calculated with the formula: % cytotoxicity = 100 × (experimental LDH release/ maximum LDH release), where maximum LDH release is after lysis solution addition (Triton X-100). Relative amounts of LDH release were measured (absorbance at 490 nm) using FlexStation 3 microplate reader (Molecular Device, Wokingham, UK). […]
Data were expressed as means ± SD. Statistical significance was determined using unpaired t-test, one-way ANOVA, and/or two-way ANOVA for direct comparisons between single groups. […]

CC[C@H](C)[C@H](NC(=O)COCCOCCNC(=O)[C@@H](NC(=O)[C@H](CC(C)C)NC(=O)[C@H](Cc1ccc(O)cc1)NC(=O)[C@@H](NC(=O)[C@H](Cc1ccccc1)NC(=O)[C@@H]1CCCN1)C(C)C)[C@@H](C)CC)C(=O)N[C@@H](CCCCN)C(=O)N[C@@H](CCCCN)C(=O)N[C@H](C(=O)N[C@@H](CC(C)C)C(=O)N[C@@H](CO)C(=O)N[C@@H](CCCCN)C(=O)N[C@H](C(=O)N[C@@H](CCCCN)C(=O)N[C@@H](CCCCN)C(=O)N[C@@H](CC(C)C)C(=O)N[C@@H](CC(C)C)C(=O)N[C@@H](CCCCN)C(N)=O)[C@@H](C)CC)[C@@H](C)CC [CPP1-PEG-LK6] (H-PFVYLI[AEEA]IKKILSKIKKLLK-NH2)
CC50 at 48 h (in vitro): 23.4 µg/mL (≈ 9.63 µM)
expression level of gB (Western blot) (HSV-1 [1]; 15 μg/ml before, during and after infection, normalized to β-actin, cell line not stated): significantly suppressed the expression level of gB
reduction in viral yield in the qPCR test (HSV-1 [1]; Figure 1C, Vero E6 (DAL-PEG-LK6 and CPP1-PEG-LK6 25 μg/ml; CPP2-PEG-LK6 10 μg/ml) and TIGKs cells (15 μg/ml)): 3 log
reduction of virus replication in titration assay (HSV-1 [1]; Figure 1D, both cell models (Vero E6, TIGKs), normalized to untreated control): over 99%
effect on HSV-1 virion integrity (HSV-1 [2]): no inhibitory effect
IC50 (HSV-1 [3]): 0.942 µg/mL (≈ 0.388 µM)
activity against HSV-1 clinical strains ([4]; Figure 4): inhibits all selected HSV-1 clinical strains
inhibition of replication of clinical strains ([4]; all tested strains: 294.1, C08R (drug-sensitive), 615.9, C10B (drug-resistant)): ~3 logs
Rt [5]: 25.247
